Experiment [1] deals with T1, EfaUPPS (I43A) (Enterococcus faecalis, UniProt Q831K9, I49A).
T1 construct: His tag; made in house; host or cells: E. coli BL21(DE3)
Nature of the experiment: UPPS inhibition assay, EfaUPPS I43A mutant. In kind it is biochemical. The procedure:
The EfaUPPS site-directed mutagenesis was generated using QuikChange site-directed mutagenesis kit (Agilent) according to the manufacturer’s instructions. The purification of site-directed mutation was using a similar strategy as described above.
The UPPS inhibition assay was carried out by measuring the fluorescence of the reaction mixture in a black 96-well microtiter plate (Corning, United States). […] After the indicated incubation period, the reaction was terminated by the addition of 10 μl of 0.5 M EDTA solution. Transferred 50 μl of the reaction mixture into a new 96-well microtiter plate, and quenched with an equal volume of Master Reaction Mix (Pyrophosphate Assay Kit, Sigma-Aldrich, USA) for 30 min. The UPPS inhibitory activity was performed by calculating the fluorescence percentage through determining the fluorescence absorbance of reaction mixture at 316 and 456 nm. Data of UPPS inhibitory activities were plotted versus compound concentrations on a semi-log scale using GraphPad Prism7. All the results were the means of at least three biological replicates.

Experiment [2] concerns the target T1, EfaUPPS (I43A). Nature of the experiment: Microscale thermophoresis binding assay, EfaUPPS I43A. On the procedure: To characterize the binding affinity between EfaUPPS and GA or NGA, the MST binding assay was performed as previously described ([Lin et al., 2020]). In brief, His-tagged EfaUPPS and site-directed mutated EfaUPPS were labeled with the NT- 647-NHS dye using the Monolith NTTM Protein Labeling Kit RED-NHS (NanoTemper Technologies). Two-fold serially diluted GA or NGA was mixed with 10 nM of labeled EfaUPPS or its derivatives in 10 μl of binding buffer (137 mM NaCl, 2.7 mM KCl, 10 mM Na2HPO4, 1.8 mM KH2PO4, and 0.05% Tween-20, pH 7.8), incubated for 15 min, at room temperature. And then, loaded the mixtures into NT.115 premium coated capillaries (NanoTemper Technologies). MST trace signals were collected from the IR laser on to off for about 20 s, under the 5% LED power and high MST power mode. The change of molecular thermophoresis was monitored by standardized fluorescence value Fnorm, and the binding curve was plotted according to the values of Fnorm. The formed complex affinity was analyzed by MO Affinity Analysis software version 2.3. Apparent dissociation constants (Kd) were calculated using nonlinear fitting assuming one specific binding site with the GraphPad Prism 7 software with the following formula: Y = B^∗Max X/KD + X.
(^∗ where BMax is the maximum theoretical specific binding; here BMax = 1).

In general, IC50 refers to the point on the concentration scale where inhibition reaches its midpoint. The Kd is the equilibrium constant for the complex coming apart. Lower therefore signals a tighter complex.

T1 sequence (Q831K9 whole entry I49A): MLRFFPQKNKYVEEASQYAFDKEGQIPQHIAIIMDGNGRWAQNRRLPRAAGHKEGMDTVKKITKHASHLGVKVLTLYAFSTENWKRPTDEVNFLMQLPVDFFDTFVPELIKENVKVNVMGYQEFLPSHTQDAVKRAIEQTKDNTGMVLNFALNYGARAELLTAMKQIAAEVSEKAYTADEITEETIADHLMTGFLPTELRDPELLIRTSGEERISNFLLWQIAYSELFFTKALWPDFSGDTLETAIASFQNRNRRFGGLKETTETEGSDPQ

`CC(C)=CCC[C@]1(C)C=Cc2c(O)c3c(c(CC=C(C)C)c2O1)O[C@]12C(=C[C@@H]4C[C@H]1C(C)(C)O[C@@]2(C/C=C(/C)C(=O)O)C4=O)C3=O` [GA, gambogic acid]: the IC50 against EfaUPPS (I43A) [1] was around 30 µM. Further, the “effect of mutation on inhibitory effect of compound on EfaUPPS enzyme activity” value on EfaUPPS (I43A) [1] (I43A mutant compared with wild-type) is “significantly decreased”. Besides, the “IC50 fold higher than that of the wild-type” value against EfaUPPS (I43A) [1] (I43A mutant vs wild-type (~3 μM)) was “about 10 fold”. At EfaUPPS (I43A) [2], this compound displayed a Kd above 50000 µM.

The values are drawn from article PMC9791066, “Investigations into the antibacterial effects and potential mechanism of gambogic acid and neogambogic acid” (Frontiers in Microbiology, 2022).
